{"source": "patent US5608091A", "about": "“Quinizarin compound, method for production thereof, and use therefor” (Nippon Shokubai Co., Ltd., priority 1993, dated 1997)", "key": {"[1]": {"assay": "Stability in storage of thermal transfer recorded images", "conditions": "50° C., 50 hours", "description": "The recorded images obtained as described above were left standing in an atmosphere kept at 50° C. for 50 hours and, after the standing, were examined to determine the presence or absence of change caused on the images owing to the standing.\n(§1) Ink compositions were prepared, transfer sheets produced, and transfer recording carried out by following the procedure of Example 89 while using the dye shown in Table 11 instead. The recorded images were tested for lightfastness and then for stability in storage in the same manner as in Example 89.\nas §1, with “dyes” for “dye”, “12” for “11”"}, "[2]": {"assay": "Solubility in toluene and methyl ethyl ketone, three-point scale", "assay_type": "physicochemical", "excerpt": "In these tables, the solubility is rated on the three-point scale, wherein Δ stands for a solubility of less than 1% by weight, .largecircle. for a solubility in the approximate range of 1 to 3% by weight, and .circleincircle. for a solubility of not less than 3% by weight."}, "Color tone of the dye": {"assay": "Color tone of the dye", "assay_type": "physicochemical", "conditions": "Tables 1-9"}, "[3]": {"assay": "Visible absorption spectrum (λmax, ε)", "assay_type": "physicochemical", "conditions": "in chloroform; for ε: at λ max, in M-1 cm-1 (unit assumed)"}}}
{"compound": "CCCCCCCCOc1c(F)c2c(c(F)c1Nc1ccc(C(=O)OCCCC)cc1)C(=O)c1c(O)ccc(O)c1C2=O", "note": "[(36)]", "values": [{"measurement": "Stability in storage", "setting": "[1]", "value": "Good"}, {"measurement": "Solubility in methyl ethyl ketone", "setting": "[2]", "value": ".circleincircle. (a solubility of not less than 3% by weight)"}, {"measurement": "Solubility in toluene", "setting": "[2]", "value": ".circleincircle. (a solubility of not less than 3% by weight)"}, {"measurement": "Color tone", "setting": "Color tone of the dye", "value": "Magenta"}, {"measurement": "λ max", "setting": "[3]", "value": 534, "unit": "nm"}, {"measurement": "ε", "setting": "[3]", "value": 12700}]}
{"compound": "CCCCCCCCOc1c(F)c2c(c(F)c1Nc1ccc([N+](=O)[O-])cc1)C(=O)c1c(O)ccc(O)c1C2=O", "note": "[(41)]", "values": [{"measurement": "Stability in storage", "setting": "[1]", "value": "Good"}, {"measurement": "Solubility in methyl ethyl ketone", "setting": "[2]", "value": ".circleincircle. (a solubility of not less than 3% by weight)"}, {"measurement": "Solubility in toluene", "setting": "[2]", "value": ".circleincircle. (a solubility of not less than 3% by weight)"}, {"measurement": "Color tone", "setting": "Color tone of the dye", "value": "Magenta"}, {"measurement": "λ max", "setting": "[3]", "value": 524, "unit": "nm"}, {"measurement": "ε", "setting": "[3]", "value": 13200}]}
{"compound": "CCCCCCCCOc1c(F)c2c(c(F)c1Nc1ccc(C#N)cc1)C(=O)c1c(O)ccc(O)c1C2=O", "note": "[(45)]", "values": [{"measurement": "Stability in storage", "setting": "[1]", "value": "Good"}, {"measurement": "Solubility in methyl ethyl ketone", "setting": "[2]", "value": ".circleincircle. (a solubility of not less than 3% by weight)"}, {"measurement": "Solubility in toluene", "setting": "[2]", "value": ".circleincircle. (a solubility of not less than 3% by weight)"}, {"measurement": "Color tone", "setting": "Color tone of the dye", "value": "Magenta"}, {"measurement": "λ max", "setting": "[3]", "value": 524, "unit": "nm"}, {"measurement": "ε", "setting": "[3]", "value": 15400}]}
{"compound": "CCCCCCCCOc1c(F)c2c(c(F)c1Nc1c(CC)cccc1CC)C(=O)c1c(O)ccc(O)c1C2=O", "note": "[(51)]", "values": [{"measurement": "Stability in storage", "setting": "[1]", "value": "Good"}, {"measurement": "Solubility in methyl ethyl ketone", "setting": "[2]", "value": ".circleincircle. (a solubility of not less than 3% by weight)"}, {"measurement": "Solubility in toluene", "setting": "[2]", "value": ".circleincircle. (a solubility of not less than 3% by weight)"}, {"measurement": "Color tone", "setting": "Color tone of the dye", "value": "Purple"}, {"measurement": "λ max", "setting": "[3]", "value": 563, "unit": "nm"}, {"measurement": "ε", "setting": "[3]", "value": 11400}]}
{"compound": "CCc1cccc(CC)c1Nc1c(F)c2c(c(F)c1Nc1c(CC)cccc1CC)C(=O)c1c(O)ccc(O)c1C2=O", "note": "[(137)]", "values": [{"measurement": "Stability in storage", "setting": "[1]", "value": "Good"}, {"measurement": "Solubility in methyl ethyl ketone", "setting": "[2]", "value": ".largecircle. (a solubility in the approximate range of 1 to 3% by weight)"}, {"measurement": "Solubility in toluene", "setting": "[2]", "value": ".circleincircle. (a solubility of not less than 3% by weight)"}, {"measurement": "Color tone", "setting": "Color tone of the dye", "value": "Cyan"}, {"measurement": "λ max", "setting": "[3]", "value": 657, "unit": "nm"}, {"measurement": "ε", "setting": "[3]", "value": 3000}]}
{"compound": "CC(C)c1cccc(C(C)C)c1Nc1c(F)c2c(c(F)c1Nc1c(C(C)C)cccc1C(C)C)C(=O)c1c(O)ccc(O)c1C2=O", "note": "[(139)]", "values": [{"measurement": "Stability in storage", "setting": "[1]", "value": "Good"}, {"measurement": "Solubility in methyl ethyl ketone", "setting": "[2]", "value": ".largecircle. (a solubility in the approximate range of 1 to 3% by weight)"}, {"measurement": "Solubility in toluene", "setting": "[2]", "value": ".circleincircle. (a solubility of not less than 3% by weight)"}, {"measurement": "Color tone", "setting": "Color tone of the dye", "value": "Cyan"}, {"measurement": "λ max", "setting": "[3]", "value": 660, "unit": "nm"}, {"measurement": "ε", "setting": "[3]", "value": 26000}]}
